The source made the active and inactive calls. The calls are words filed in the database; no cut-off is given here.
Tests used:
[1] = Selectivity index, ratio of IC50 for human MCF10A cells to IC50 for human SK-BR-3 cells; format: toxicity; conditions: MCF10A cells versus SK-BR-3 cells, read-out: Ratio IC50
[2] = Antiproliferative activity against human LoVo/DX cells after 72 hrs by SRB assay; format: functional, cell-based
[3] = Selectivity index, ratio of IC50 for human MCF10A cells to IC50 for human LoVo/DX cells; format: toxicity; conditions: MCF10A cells versus LoVo/DX cells, read-out: Ratio IC50
[4] = test system: LoVo; test: Antiproliferative activity against human LoVo cells after 72 hrs by SRB assay; format: functional, cell-based
[5] = Selectivity index, ratio of IC50 for human MCF10A cells to IC50 for human MCF7 cells; format: toxicity; conditions: MCF10A cells versus MCF7 cells, read-out: Ratio IC50
[6] = Selectivity index, ratio of IC50 for human MCF10A cells to IC50 for human LoVo cells; format: toxicity; conditions: MCF10A cells versus LoVo cells, read-out: Ratio IC50
[7] = Resistance index, ratio of IC50 for human LoVo/DX cells to IC50 for human LoVo cells; format: functional
[8] = test system: JIMT-1; test: Antiproliferative activity against human JIMT1 cells after 72 hrs by SRB assay; format: functional, cell-based; conditions: JIMT-1, 72 h
[9] = test system: MCF-10A; test: Antiproliferative activity against human MCF10A cells after 72 hrs by SRB assay; format: cell-based
[10] = Antiproliferative activity against human ALL5 cells at 10 uM after 120 hrs by MTT assay relative to control; format: functional
[11] = Selectivity index, ratio of IC50 for human MCF10A cells to IC50 for human JIMT1 cells; format: toxicity; conditions: MCF10A cells versus JIMT1 cells, read-out: Ratio IC50
[12] = test system: MCF7; test: Antiproliferative activity against human MCF7 cells after 72 hrs by SRB assay; format: functional, cell-based; conditions: MCF7, 72 h
[13] = test system: SK-BR-3; test: Antiproliferative activity against human SK-BR-3 cells after 72 hrs by SRB assay; format: functional, cell-based; conditions: SK-BR-3, 72 h
[14] = organism: Homo sapiens; test: Induction of apoptosis in human ALL5 cells assessed as increase in cleaved PARP expression at 9.5 uM up to 48 hrs by immunoblot analysis; format: functional, cell-based
[15] = Cell cycle arrest in human ALL5 cells assessed as accumulation at S-phase at 5 times antiproliferative IC50 after 48 hrs by propidium iodide staining based flow cytometry (reference value: 9.82%); format: functional
[16] = Cell cycle arrest in human ALL5 cells assessed as accumulation at sub-G1 phase at 5 times antiproliferative IC50 after 48 hrs by propidium iodide staining based flow cytometry (reference value: 7.8%); format: functional
[17] = Cell cycle arrest in human ALL5 cells assessed as accumulation at G2/M-phase at 5 times antiproliferative IC50 after 48 hrs by propidium iodide staining based flow cytometry (reference value: 13.2%); format: functional
[18] = Cell cycle arrest in human ALL5 cells assessed as accumulation at sub-G1 phase at 5 times antiproliferative IC50 after 96 hrs by propidium iodide staining based flow cytometry (reference value: 12%); format: functional
[19] = test system: LoVo; test: Antiproliferative activity against human LoVo cells at 100 ug/ml after 72 hrs by SRB assay relative to control; format: functional
[20] = Cell cycle arrest in human ALL5 cells assessed as accumulation at sub-G1 phase at 5 times antiproliferative IC50 after 24 hrs by propidium iodide staining based flow cytometry (reference value: 6.07%); format: functional
[21] = Cell cycle arrest in human ALL5 cells assessed as accumulation at G0/G1 phase at 5 times antiproliferative IC50 after 96 hrs by propidium iodide staining based flow cytometry (reference value: 69.8%); format: functional
[22] = test system: SK-BR-3; test: Antiproliferative activity against human SK-BR-3 cells at 100 ug/ml after 72 hrs by SRB assay relative to control; format: functional
[23] = Cell cycle arrest in human ALL5 cells assessed as accumulation at S-phase at 5 times antiproliferative IC50 after 24 hrs by propidium iodide staining based flow cytometry (reference value: 6.76%); format: functional
[24] = test system: MCF-10A; test: Antiproliferative activity against human MCF10A cells at 100 ug/ml after 72 hrs by SRB assay relative to control; format: cell-based
[25] = organism: Homo sapiens; test: Induction of apoptosis in human ALL5 cells assessed as increase in cleaved PARP expression at 9.5 uM after 96 hrs by immunoblot analysis; format: functional, cell-based
[26] = Cell cycle arrest in human ALL5 cells assessed as accumulation at S-phase at 5 times antiproliferative IC50 after 96 hrs by propidium iodide staining based flow cytometry (reference value: 7.52%); format: functional
[27] = Cell cycle arrest in human ALL5 cells assessed as accumulation at G2/M-phase at 5 times antiproliferative IC50 after 96 hrs by propidium iodide staining based flow cytometry (reference value: 11.1%); format: functional
[28] = organism: Homo sapiens; test: Induction of apoptosis in human ALL5 cells assessed as increase in p53 expression at 9.5 uM up to 96 hrs by immunoblot analysis; format: functional, cell-based
[29] = Cell cycle arrest in human ALL5 cells assessed as accumulation at G2/M-phase at 5 times antiproliferative IC50 after 24 hrs by propidium iodide staining based flow cytometry (reference value: 7.98%); format: functional
[30] = Cell cycle arrest in human ALL5 cells assessed as accumulation at G0/G1 phase at 5 times antiproliferative IC50 after 48 hrs by propidium iodide staining based flow cytometry (reference value: 69.6%); format: functional
[31] = Antiproliferative activity against human ALL5 cells after 120 hrs by MTT assay; format: functional, cell-based; conditions: ALL5, 120 h
[32] = test system: JIMT-1; test: Antiproliferative activity against human JIMT1 cells at 100 ug/ml after 72 hrs by SRB assay relative to control; format: functional
[33] = Cell cycle arrest in human ALL5 cells assessed as accumulation at G0/G1 phase at 5 times antiproliferative IC50 after 24 hrs by propidium iodide staining based flow cytometry (reference value: 79.7%); format: functional
[34] = test system: Breast carcinoma cell; test: Ex vivo antitumor activity against patient derived breast cancer tissue assessed as increase in number of dead tumor cells at 6.2 uM by H and E staining based immunohistochemical analysis; format: functional; conditions: Homo sapiens, TDE = time-dependent effect
[35] = test system: Breast carcinoma cell; test: Ex vivo antitumor activity against patient derived breast cancer tissue assessed as decrease in tumor cell proliferation at 6.2 uM by Ki-67 staining based immunohistochemical analysis; format: functional; conditions: Homo sapiens, TDE = time-dependent effect
[36] = Selectivity index, ratio of IC50 for human MCF10A cells to IC50 for human ALL5 cells; format: toxicity; conditions: MCF10A cells versus ALL5 cells, read-out: Ratio IC50
[37] = organism: Homo sapiens; test: Induction of apoptosis in human ALL5 cells assessed as increase in p53 expression at 0.2 uM up to 96 hrs by immunoblot analysis; format: functional, cell-based
[38] = organism: Homo sapiens; test: Induction of apoptosis in human ALL5 cells assessed as increase in cleaved PARP expression at 0.2 uM up to 96 hrs by immunoblot analysis; format: functional, cell-based

Row | Structure (SMILES) | IC50 [4] | IC50 [12] | IC50 [13] | IC50 [2] | Ratio IC50 [7] | IC50 [8] | Activity [15] | Activity [16] | Activity [17] | Activity [18] | Activity [20] | Activity [21] | Activity [23] | Activity [24] | Activity [26] | Activity [27] | Activity [29] | Activity [30] | IC50 [31] | Activity [33] | also measured
1 | C#CCNC(=O)[C@H](CC)[C@H]1CC[C@H](C)[C@H]([C@@H](C)[C@H](O)[C@H](C)C(=O)[C@H](CC)[C@H]2O[C@]3(C=C[C@@H](O)[C@]4(CC[C@@](C)([C@H]5CC[C@](O)(CC)[C@H](C)O5)O4)O3)[C@H](C)C[C@@H]2C)O1 | 7.7 µM | 10 µM | 31 µM | 3.1 µM | 0.4 | 29 µM | – | – | – | – | – | – | – | – | – | – | – | – | – | – | selectivity ratio [1]: 2; selectivity ratio [3]: 20; selectivity ratio [5]: 6.2; selectivity ratio [6]: 8.1; IC50 [9]: 62 µM; Activity [10]: <=50%; selectivity ratio [11]: 2.1
2 | C#CCOC(=O)[C@H](CC)[C@H]1CC[C@H](C)[C@H]([C@@H](C)[C@H](O)[C@H](C)C(=O)[C@H](CC)[C@H]2O[C@]3(C=C[C@@H](OC(=O)OCC)[C@]4(CC[C@@](C)([C@H]5CC[C@](O)(CC)[C@H](C)O5)O4)O3)[C@H](C)C[C@@H]2C)O1 | – | 38 µM | – | 8.1 µM | – | – | 5.9% | 10.6% | 8.29% | 19.8% | 4.82% | 67.8% | 5.6% | <= 50% | 5.03% | 7.59% | 8.79% | 75.6% | 1.9 µM | 81.2% | Activity [14]: inactive; Activity [19]: <=50%; Activity [22]: <=50%; Activity [25]: Active; Activity [28]: Active; Activity [32]: <=50%
3 | CC[C@@H](C(=O)[C@@H](C)[C@@H](O)[C@H](C)[C@@H]1O[C@@H]([C@@H](CC)C(=O)O)CC[C@@H]1C)[C@H]1O[C@]2(C=C[C@@H](O)[C@]3(CC[C@@](C)([C@H]4CC[C@](O)(CC)[C@H](C)O4)O3)O2)[C@H](C)C[C@@H]1C [SALINOMYCIN] | 0.44 µM | 1.5 µM | 0.89 µM | 0.69 µM | 1.6 | 1.3 µM | – | – | – | – | – | – | – | – | – | – | – | – | 2.4 µM | – | selectivity ratio [1]: 52; selectivity ratio [3]: 67; selectivity ratio [5]: 31; selectivity ratio [6]: 105; Activity [34]: Tde; Activity [35]: Tde; IC50 [9]: 46 µM; selectivity ratio [36]: 19; selectivity ratio [11]: 35
4 | CC[C@@H](C(=O)[C@@H](C)[C@@H](O)[C@H](C)[C@@H]1O[C@@H]([C@@H](CC)C(=O)OCC(F)(F)F)CC[C@@H]1C)[C@H]1O[C@]2(C=C[C@@H](OC(C)=O)[C@]3(CC[C@@](C)([C@H]4CC[C@](O)(CC)[C@H](C)O4)O3)O2)[C@H](C)C[C@@H]1C | 8.7 µM | 12 µM | – | 18 µM | 2.1 | 39 µM | – | – | – | – | – | – | – | <= 50% | – | – | – | – | – | – | Activity [22]: <=50%; Activity [10]: <=50%
5 | C#CCOC(=O)[C@H](CC)[C@H]1CC[C@H](C)[C@H]([C@@H](C)[C@H](O)[C@H](C)C(=O)[C@H](CC)[C@H]2O[C@]3(C=C[C@@H](OC(C)=O)[C@]4(CC[C@@](C)([C@H]5CC[C@](O)(CC)[C@H](C)O5)O4)O3)[C@H](C)C[C@@H]2C)O1 | 12 µM | 7.4 µM | – | 5.2 µM | 0.43 | 27 µM | 5.62% | 9.68% | 11.5% | 26.8% | 5.15% | 57.7% | 5.99% | <= 50% | 5.06% | 10.6% | 9.12% | 73.5% | 2.6 µM | 80.2% | Activity [22]: <=50%

The next lines start with results.

Row | IC50 [4] | IC50 [12] | IC50 [13] | Structure (SMILES) | IC50 [2] | Ratio IC50 [7] | IC50 [8] | Activity [15] | Activity [16] | Activity [17] | Activity [18] | Activity [20] | Activity [21] | Activity [23] | Activity [24] | Activity [26] | Activity [27] | Activity [29] | Activity [30] | IC50 [31] | Activity [33] | also measured
6 | 5.2 µM | 5 µM | 25 µM | C#CCOC(=O)[C@H](CC)[C@H]1CC[C@H](C)[C@H]([C@@H](C)[C@H](O)[C@H](C)C(=O)[C@H](CC)[C@H]2O[C@]3(C=C[C@@H](OC(=O)NCC)[C@]4(CC[C@@](C)([C@H]5CC[C@](O)(CC)[C@H](C)O5)O4)O3)[C@H](C)C[C@@H]2C)O1 | 3.4 µM | 0.65 | 7.4 µM | 5.8% | 19.6% | 13.8% | 43.6% | 6.58% | 42% | 5.16% | <= 50% | 3.67% | 10.9% | 9.7% | 61.1% | 6.9 µM | 78.8% | –
7 | 0.24 µM | 0.26 µM | 0.37 µM | COc1cccc2c1C(=O)c1c(O)c3c(c(O)c1C2=O)C[C@@](O)(C(=O)CO)C[C@@H]3O[C@H]1C[C@H](N)[C@H](O)[C@H](C)O1 [DOXORUBICIN] | 10 µM | – | 0.59 µM | 3.23% | 27.4% | 2.76% | 62.7% | 8.94% | 31.6% | – | – | – | 2.16% | 8.96% | 66.8% | 0.04 µM | 78.2% | Activity [37]: Active; IC50 [9]: 0.58 µM; Activity [38]: Active
8 | 4.7 µM | 3.9 µM | 9.9 µM | CCOC(=O)O[C@@H]1C=C[C@]2(O[C@H]([C@@H](CC)C(=O)[C@@H](C)[C@@H](O)[C@H](C)[C@@H]3O[C@@H]([C@@H](CC)C(=O)NCCc4ccc(F)cc4)CC[C@@H]3C)[C@@H](C)C[C@H]2C)O[C@@]12CC[C@@](C)([C@H]1CC[C@](O)(CC)[C@H](C)O1)O2 | 6.5 µM | 1.4 | 7 µM | 1.02% | 7.78% | 4.85% | 27.5% | 6.39% | 69.4% | 4.95% | <= 50% | 1.35% | 1.94% | 6.54% | 86.4% | 3.7 µM | 82.5% | –
